The values that follow come from article PMC7960226 (Science (New York, N.Y.), 2020).

Like-named read-outs stand apart in the source and are kept apart here. Some results are limits rather than exact numbers.

One data set deals with CHRM2 (Homo sapiens, UniProt P08172). The note with it: Table 2, CHRM2; accurate to ±20%.
The target of the next data set is PRMT1 (Homo sapiens, UniProt Q99873). Particulars: Table 1, predicted target PRMT1.
Another data set has as its target PDE4D (Homo sapiens, UniProt Q08499). Put plainly: in vitro assay, PDE4D. The format is biochemical. The note with it: Table 2, PDE4D; accurate to ±20%.
Another data set deals with T1, SLCO2B1 (Homo sapiens, UniProt O94956).
T1 sequence (O94956 1-709): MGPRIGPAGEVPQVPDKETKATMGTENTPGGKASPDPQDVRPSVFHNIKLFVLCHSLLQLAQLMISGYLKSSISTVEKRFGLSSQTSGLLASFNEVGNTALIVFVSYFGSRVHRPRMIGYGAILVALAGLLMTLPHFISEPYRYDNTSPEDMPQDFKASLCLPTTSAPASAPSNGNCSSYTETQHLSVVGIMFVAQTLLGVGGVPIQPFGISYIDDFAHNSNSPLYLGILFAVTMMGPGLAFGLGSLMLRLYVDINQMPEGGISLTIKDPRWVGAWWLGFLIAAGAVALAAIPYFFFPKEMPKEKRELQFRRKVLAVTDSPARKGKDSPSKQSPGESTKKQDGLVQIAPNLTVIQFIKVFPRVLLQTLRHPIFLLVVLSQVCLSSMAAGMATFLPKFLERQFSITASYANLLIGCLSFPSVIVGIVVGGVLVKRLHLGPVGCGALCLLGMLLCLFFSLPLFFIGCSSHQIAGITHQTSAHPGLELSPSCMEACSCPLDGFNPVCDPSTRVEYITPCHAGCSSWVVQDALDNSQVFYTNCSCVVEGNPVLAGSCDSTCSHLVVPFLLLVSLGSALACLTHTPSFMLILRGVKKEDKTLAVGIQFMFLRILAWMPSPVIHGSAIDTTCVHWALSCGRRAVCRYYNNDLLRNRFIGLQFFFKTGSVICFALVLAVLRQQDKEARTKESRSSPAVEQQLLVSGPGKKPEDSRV
The data set is described as follows: in vitro transporter inhibition, SLCO2B1. Type of data set: biochemical. Particulars: Table 2, SLCO2B1; accurate to ±20%.

A further data set addresses PDE3A (Homo sapiens, UniProt Q14432). The data set is described as follows: safety panel assay, PDE3A. Type of data set: biochemical. The note with it: Table 2, PDE3A; accurate to ±20%.
The target in a further data set is DRD1 (Homo sapiens, UniProt P21728). The format is binding. Particulars: Table 2, DRD1; accurate to ±20%.
The target in a further data set is ADORA3 (Homo sapiens, UniProt P0DMS8). Particulars: Table 2, ADORA3; accurate to ±20%.
Another data set deals with T2, ADRA1A (Homo sapiens, UniProt P35348).
T2 sequence (P35348 1-466): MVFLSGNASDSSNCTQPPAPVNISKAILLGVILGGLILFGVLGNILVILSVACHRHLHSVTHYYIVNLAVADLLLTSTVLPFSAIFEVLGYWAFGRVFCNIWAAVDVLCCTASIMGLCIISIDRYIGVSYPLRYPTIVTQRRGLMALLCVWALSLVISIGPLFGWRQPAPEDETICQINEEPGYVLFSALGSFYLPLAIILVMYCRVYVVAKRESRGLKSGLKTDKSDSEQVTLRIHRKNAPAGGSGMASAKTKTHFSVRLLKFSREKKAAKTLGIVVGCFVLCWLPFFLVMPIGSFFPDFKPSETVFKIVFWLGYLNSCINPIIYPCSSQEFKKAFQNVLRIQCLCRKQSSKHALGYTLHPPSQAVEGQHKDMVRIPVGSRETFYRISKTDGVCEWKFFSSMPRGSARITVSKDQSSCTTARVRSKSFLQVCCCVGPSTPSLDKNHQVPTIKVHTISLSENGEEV
Particulars: Table 2, ADRA1A; accurate to ±20%.

A further data set has as its target SLC22A6 (Homo sapiens, UniProt Q4U2R8). Put plainly: in vitro transporter assay, SLC22A6. The note with it: Table 1, predicted target SLC22A6.
For the next data set, the target named is OPRM1 (Homo sapiens, UniProt P35372). Put plainly: safety panel assay, OPRM1. Particulars: Table 2, OPRM1 (OPRM); accurate to ±20%. Type of data set: binding.
Another data set has as its target SLC6A3 (Homo sapiens, UniProt Q01959). The data set is described as follows: safety panel assay, SLC6A3. Type of data set: biochemical. Particulars: Table 2, SLC6A3; accurate to ±20%.
The next data set addresses DRD3 (Homo sapiens, UniProt P35462). Particulars: Table 2, DRD3; accurate to ±20%.
For a further data set, the target named is SLC18A2 (Homo sapiens, UniProt Q05940). The data set is described as follows: transporter inhibition, SLC18A2. The note with it: Table 2, SLC18A2; accurate to ±20%. Type of data set: biochemical.
For another data set, the target named is KCNH2 (Homo sapiens, UniProt Q12809).
A further data set addresses T3, CHRM1 (Homo sapiens, UniProt P11229).
T3 sequence (P11229 1-460): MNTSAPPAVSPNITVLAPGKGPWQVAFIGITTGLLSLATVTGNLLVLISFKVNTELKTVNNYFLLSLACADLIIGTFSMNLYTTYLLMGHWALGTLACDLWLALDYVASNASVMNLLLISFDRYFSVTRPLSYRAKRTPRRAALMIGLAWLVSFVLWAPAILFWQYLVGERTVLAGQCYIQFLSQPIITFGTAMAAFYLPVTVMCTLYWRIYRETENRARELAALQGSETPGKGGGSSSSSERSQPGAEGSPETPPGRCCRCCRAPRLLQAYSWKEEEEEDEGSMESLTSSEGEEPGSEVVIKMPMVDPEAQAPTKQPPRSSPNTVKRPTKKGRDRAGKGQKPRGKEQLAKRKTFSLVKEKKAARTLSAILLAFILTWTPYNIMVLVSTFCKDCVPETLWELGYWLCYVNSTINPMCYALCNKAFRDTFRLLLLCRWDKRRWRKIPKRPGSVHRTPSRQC
The note with it: Table 2, CHRM1; an agonist effect was observed; accurate to ±20%.

The next data set concerns the target SLC6A2 (Homo sapiens, UniProt P23975). Particulars: Table 2, SLC6A2; accurate to ±20%.
In the next data set the target is GABRA1 (Homo sapiens, UniProt P14867). Put plainly: safety panel assay, GABRA1. Type of data set: binding. The note with it: Table 2, GABRA1; accurate to ±20%.
For data set [1], the system named is BioMAP Diversity PLUS panel. Put plainly: BioMAP Diversity PLUS panel of cell-based systems.
Another data set concerns the target T4, PTGS2 (Homo sapiens, UniProt P35354).
T4 sequence (P35354 18-604): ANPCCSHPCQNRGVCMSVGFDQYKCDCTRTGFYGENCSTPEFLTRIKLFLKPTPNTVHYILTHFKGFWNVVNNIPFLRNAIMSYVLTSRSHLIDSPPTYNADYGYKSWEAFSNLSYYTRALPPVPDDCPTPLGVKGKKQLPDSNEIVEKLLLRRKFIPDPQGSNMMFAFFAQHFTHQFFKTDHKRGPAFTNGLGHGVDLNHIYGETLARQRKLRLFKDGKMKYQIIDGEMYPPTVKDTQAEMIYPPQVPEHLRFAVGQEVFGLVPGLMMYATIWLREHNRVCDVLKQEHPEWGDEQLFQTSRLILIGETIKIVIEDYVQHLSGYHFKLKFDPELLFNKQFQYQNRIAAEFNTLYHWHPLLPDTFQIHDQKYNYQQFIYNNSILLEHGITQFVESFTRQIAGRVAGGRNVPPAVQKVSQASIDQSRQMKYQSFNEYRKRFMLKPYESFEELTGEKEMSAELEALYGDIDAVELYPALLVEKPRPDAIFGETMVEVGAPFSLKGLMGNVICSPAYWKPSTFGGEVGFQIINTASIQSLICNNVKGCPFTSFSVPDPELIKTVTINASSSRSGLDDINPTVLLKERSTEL
Put plainly: safety panel assay, PTGS2. The format is biochemical. The note with it: Table 2, PTGS2; accurate to ±20%.

A further data set deals with PTGS1 (Homo sapiens, UniProt P23219). Particulars: Table 2, PTGS1; accurate to ±20%.
The target of the next data set is hERG ion channel (Homo sapiens, UniProt Q12809).
In a further data set the target is HRH3 (Homo sapiens, UniProt Q9Y5N1). Particulars: Table 2, HRH3; accurate to ±20%.
The next data set has as its target ACHE (Homo sapiens, UniProt P22303). The note with it: Table 2, ACHE; accurate to ±20%.
In the next data set the target is FTO (Homo sapiens, UniProt Q9C0B1). The data set is described as follows: in vitro assay, FTO. The format is biochemical. Particulars: Table 2, FTO; accurate to ±20%.
Data set [2] can be described thus: Pharmacokinetics in rats after i.v. and oral administration. The note with it: for Cmax: 10 mg/kg, oral 10 mg/kg.
For a further data set, the target named is ALOX5 (Homo sapiens, UniProt P09917). Put plainly: in vitro assay, ALOX5. Type of data set: biochemical.
Data set [3] is described as follows: Madin-Darby canine kidney permeability assay. The note with it: dog, MDCK.
A further data set has as its target TY3H (Homo sapiens, UniProt P07101). Put plainly: in vitro assay, TY3H. Type of data set: biochemical. Particulars: Table 2, TY3H; accurate to ±20%.
The target of another data set is COMT (Homo sapiens, UniProt P21964). The data set is described as follows: in vitro inhibition of COMT.
In another data set the target is KDM4C (Homo sapiens, UniProt Q9H3R0). The data set is described as follows: in vitro assay, KDM4C. The format is biochemical. Particulars: Table 2, KDM4C; accurate to ±20%.

DRD1, sequence (P21728 whole entry, species assumed): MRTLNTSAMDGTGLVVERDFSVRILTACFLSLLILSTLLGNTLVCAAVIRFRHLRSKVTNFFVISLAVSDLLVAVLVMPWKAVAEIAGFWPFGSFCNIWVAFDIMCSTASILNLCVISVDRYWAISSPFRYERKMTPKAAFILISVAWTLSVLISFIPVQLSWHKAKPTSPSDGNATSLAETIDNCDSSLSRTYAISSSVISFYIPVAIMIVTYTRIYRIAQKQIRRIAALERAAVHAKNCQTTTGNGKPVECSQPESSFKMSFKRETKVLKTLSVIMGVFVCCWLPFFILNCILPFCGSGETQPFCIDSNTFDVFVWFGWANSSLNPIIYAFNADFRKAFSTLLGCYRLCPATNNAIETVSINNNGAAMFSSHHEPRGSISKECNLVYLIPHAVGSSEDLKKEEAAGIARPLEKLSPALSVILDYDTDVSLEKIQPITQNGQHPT
KCNH2, sequence (Q12809 whole entry): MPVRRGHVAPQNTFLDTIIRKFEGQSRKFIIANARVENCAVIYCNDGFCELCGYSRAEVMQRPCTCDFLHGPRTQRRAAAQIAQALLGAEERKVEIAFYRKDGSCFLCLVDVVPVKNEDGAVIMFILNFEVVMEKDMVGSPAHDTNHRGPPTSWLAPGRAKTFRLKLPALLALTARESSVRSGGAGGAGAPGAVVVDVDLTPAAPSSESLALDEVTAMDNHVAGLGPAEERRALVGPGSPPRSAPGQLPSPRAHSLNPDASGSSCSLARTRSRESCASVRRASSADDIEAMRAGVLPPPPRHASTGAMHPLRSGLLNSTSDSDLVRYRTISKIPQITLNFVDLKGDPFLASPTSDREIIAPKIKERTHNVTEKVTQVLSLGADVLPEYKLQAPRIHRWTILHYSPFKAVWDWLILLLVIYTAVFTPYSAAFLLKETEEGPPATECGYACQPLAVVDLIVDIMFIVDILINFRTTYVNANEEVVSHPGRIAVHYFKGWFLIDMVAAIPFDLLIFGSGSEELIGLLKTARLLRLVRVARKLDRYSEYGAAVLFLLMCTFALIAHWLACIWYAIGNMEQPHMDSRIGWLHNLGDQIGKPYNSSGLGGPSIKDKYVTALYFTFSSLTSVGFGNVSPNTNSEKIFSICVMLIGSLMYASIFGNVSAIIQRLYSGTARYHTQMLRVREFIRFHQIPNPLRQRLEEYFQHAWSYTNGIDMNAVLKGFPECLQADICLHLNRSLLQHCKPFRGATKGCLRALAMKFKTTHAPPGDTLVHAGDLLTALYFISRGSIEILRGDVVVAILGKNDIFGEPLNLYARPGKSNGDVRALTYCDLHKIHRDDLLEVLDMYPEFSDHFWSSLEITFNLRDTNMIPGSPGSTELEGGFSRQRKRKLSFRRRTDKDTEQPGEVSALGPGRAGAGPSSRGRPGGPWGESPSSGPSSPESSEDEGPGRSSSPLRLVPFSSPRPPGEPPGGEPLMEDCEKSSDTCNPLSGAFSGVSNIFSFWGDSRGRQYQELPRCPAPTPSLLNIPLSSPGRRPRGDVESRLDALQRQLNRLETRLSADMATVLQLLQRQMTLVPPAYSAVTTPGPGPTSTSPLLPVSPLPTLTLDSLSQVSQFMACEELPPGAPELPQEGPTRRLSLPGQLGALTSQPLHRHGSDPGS
OPRM1, sequence (P35372 whole entry, species assumed): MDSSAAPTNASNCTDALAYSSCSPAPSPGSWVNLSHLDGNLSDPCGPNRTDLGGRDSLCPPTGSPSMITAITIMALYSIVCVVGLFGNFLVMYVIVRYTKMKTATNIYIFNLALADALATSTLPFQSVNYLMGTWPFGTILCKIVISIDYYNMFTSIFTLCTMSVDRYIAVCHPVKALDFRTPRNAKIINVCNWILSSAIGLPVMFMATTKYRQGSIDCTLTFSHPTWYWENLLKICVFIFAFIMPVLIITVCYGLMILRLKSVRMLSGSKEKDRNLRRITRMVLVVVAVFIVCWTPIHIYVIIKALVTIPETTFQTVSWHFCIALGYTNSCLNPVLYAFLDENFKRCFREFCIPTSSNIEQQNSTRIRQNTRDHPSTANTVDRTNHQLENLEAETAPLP
CHRM2, sequence (P08172 whole entry, species assumed): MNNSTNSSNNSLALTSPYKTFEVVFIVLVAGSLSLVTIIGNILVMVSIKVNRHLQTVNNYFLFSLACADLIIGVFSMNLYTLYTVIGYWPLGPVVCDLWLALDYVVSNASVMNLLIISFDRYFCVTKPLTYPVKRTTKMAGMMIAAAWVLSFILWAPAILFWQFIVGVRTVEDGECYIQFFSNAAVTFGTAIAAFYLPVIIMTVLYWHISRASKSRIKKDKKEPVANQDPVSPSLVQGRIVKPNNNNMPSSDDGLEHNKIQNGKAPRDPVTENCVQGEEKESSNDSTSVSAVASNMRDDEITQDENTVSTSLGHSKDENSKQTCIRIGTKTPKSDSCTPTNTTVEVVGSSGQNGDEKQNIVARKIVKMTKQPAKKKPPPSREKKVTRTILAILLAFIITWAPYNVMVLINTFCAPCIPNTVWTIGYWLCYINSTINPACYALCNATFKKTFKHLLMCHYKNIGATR
COMT, sequence (P21964 whole entry): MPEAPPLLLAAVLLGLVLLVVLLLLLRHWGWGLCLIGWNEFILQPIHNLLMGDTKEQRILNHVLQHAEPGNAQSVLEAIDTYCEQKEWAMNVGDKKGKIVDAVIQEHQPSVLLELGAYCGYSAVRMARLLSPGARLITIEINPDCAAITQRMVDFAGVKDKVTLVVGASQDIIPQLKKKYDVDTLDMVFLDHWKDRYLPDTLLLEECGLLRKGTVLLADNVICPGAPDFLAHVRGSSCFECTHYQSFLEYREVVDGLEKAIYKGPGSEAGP
SLC18A2, sequence (Q05940 whole entry, species assumed): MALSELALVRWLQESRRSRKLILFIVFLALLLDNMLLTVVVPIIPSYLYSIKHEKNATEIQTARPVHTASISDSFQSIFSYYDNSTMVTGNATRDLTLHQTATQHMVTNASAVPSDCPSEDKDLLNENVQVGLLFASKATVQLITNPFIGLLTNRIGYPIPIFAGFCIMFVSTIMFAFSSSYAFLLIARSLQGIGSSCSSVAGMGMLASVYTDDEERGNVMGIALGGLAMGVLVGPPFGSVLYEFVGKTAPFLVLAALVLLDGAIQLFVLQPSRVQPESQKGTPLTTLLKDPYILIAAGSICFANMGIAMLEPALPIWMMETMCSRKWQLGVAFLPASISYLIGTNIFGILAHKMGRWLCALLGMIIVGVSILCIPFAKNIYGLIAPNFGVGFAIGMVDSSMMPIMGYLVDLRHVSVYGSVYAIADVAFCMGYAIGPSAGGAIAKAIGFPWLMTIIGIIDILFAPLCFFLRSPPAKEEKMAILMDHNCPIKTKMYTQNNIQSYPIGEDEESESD
ALOX5, sequence (P09917 whole entry, species assumed): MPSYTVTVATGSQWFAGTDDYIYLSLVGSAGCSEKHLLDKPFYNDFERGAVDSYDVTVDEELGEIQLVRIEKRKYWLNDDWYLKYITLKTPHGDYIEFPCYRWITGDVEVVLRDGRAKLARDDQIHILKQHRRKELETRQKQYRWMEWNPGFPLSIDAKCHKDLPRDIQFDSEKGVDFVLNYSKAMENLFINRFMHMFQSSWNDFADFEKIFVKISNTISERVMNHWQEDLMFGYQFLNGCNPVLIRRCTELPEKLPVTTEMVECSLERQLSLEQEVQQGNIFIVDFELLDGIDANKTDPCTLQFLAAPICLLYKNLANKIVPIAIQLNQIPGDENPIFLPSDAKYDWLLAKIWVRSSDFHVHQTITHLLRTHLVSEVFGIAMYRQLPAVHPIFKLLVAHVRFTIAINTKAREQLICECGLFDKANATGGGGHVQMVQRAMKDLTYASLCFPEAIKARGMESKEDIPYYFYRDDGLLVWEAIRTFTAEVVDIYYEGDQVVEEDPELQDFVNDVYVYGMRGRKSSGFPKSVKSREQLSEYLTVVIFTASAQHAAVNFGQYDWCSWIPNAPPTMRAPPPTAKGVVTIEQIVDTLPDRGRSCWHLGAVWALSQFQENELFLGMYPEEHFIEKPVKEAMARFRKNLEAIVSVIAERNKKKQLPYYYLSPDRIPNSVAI
DRD3, sequence (P35462 whole entry, species assumed): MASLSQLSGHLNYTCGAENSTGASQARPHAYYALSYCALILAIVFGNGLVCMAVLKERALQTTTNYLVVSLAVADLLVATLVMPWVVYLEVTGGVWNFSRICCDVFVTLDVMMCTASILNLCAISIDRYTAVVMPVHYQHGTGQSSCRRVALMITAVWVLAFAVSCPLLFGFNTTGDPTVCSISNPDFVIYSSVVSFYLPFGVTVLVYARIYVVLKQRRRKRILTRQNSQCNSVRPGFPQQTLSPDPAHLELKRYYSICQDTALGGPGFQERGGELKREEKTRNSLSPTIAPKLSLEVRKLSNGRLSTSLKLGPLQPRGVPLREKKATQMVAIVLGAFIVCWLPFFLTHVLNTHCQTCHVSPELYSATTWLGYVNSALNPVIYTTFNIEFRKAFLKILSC
PTGS1, sequence (P23219 24-599, species assumed): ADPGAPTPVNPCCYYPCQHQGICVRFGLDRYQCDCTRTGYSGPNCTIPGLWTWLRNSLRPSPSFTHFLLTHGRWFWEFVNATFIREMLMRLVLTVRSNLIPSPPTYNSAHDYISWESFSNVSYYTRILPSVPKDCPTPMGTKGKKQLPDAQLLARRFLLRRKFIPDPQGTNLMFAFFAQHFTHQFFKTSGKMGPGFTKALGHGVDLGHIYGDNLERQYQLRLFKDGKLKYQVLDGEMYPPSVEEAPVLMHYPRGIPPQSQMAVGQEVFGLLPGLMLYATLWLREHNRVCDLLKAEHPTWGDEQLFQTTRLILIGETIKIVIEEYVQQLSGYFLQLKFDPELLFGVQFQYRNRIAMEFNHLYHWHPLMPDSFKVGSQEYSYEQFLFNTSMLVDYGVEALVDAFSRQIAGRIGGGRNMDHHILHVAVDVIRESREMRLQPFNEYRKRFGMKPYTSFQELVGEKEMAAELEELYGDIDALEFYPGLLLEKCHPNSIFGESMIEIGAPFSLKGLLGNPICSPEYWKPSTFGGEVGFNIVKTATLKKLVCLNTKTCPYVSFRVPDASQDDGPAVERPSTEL

For `O=C([O-])c1c(Cl)c(Cl)c(Cl)c(Cl)c1-c1c2cc(Br)c(=O)c(Br)c-2oc2c(Br)c([O-])c(Br)cc12.[Na+].[Na+]` [D&C Red No. 28, Phloxine B], the “Ki/IC50 Or EC50” value at CHRM2 was determined as 680 nM; on PDE4D, 940 nM; on SLCO2B1 it was 600 nM; on PDE3A it was 130 nM; at DRD1, 590 nM; at ADORA3 it was 480 nM. Also, the results for the “Ki/IC50 Or EC50” value at ADRA1A and at OPRM1 were 480 nM and 820 nM, respectively. Further, the Ki/IC50 at PRMT1 is 700 nM; on SLC22A6, 64 nM.
Regarding `CC(=O)[O][Hg][c]1ccccc1` [Phenylmercuric acetate], the “Ki/IC50 Or EC50” value at SLC6A3 worked out at 1800 nM; at DRD3, 24 nM; on DRD1 it was 2200 nM; at SLC18A2, 360 nM; at KCNH2 (Table 2, KCNH2, accurate to ±20%), 6.2 µM; at CHRM1, 8100 nM. In addition, the “Ki/IC50 Or EC50” value at SLC6A2 is 1700 nM.
As for `O=C([O-])C1=NN(c2ccc(S(=O)(=O)[O-])cc2)C(=O)C1N=Nc1ccc(S(=O)(=O)[O-])cc1.[Na+].[Na+].[Na+]` (stereo not shown) [FD&C Yellow No. 5 (Tartrazine), Tartrazine], the “Ki/IC50 Or EC50” value amounted to 13000 nM at GABRA1, 23000 nM on DRD1 and 16000 nM on OPRM1. Also, in [1] (1.1, 3.3, 10, 30 μM), the “activity in the BioMAP cell-based systems” value was “no measurable activity”.
`CCCCCCCC/C=C\CCCCCCCC(=O)O` [Oleic acid]: the “Ki/IC50 Or EC50” value worked out at 3500 nM on PTGS2, 6700 nM at PTGS1 and 4700 nM on SLC18A2.
With `CNC1(c2ccccc2Cl)CCCCC1=O` (stereo not shown) [ketamine], at hERG ion channel, the hERG activity result is given as “no detectable hERG activity”.
For the compound `CN(C)c1ccc2nc3ccc(=[N+](C)C)cc-3sc2c1` [Methylene Blue], the “Ki/IC50 Or EC50” value on CHRM2 was 190 nM; on HRH3, 880 nM; at KCNH2 (human), 0.090 0.19 0.88 27.5 μM; on ACHE, 90 nM.
`CCCOC(=O)c1cc(O)c(O)c(O)c1` [Propyl gallate]: the “Ki/IC50 Or EC50” value on PTGS2 turned out to be 7200 nM; on FTO, 3000 nM; on ALOX5 (Table 2, ALOX5, accurate to ±20%), 430 nM; at TY3H it was 1900 nM; on KDM4C, 39000 nM. In addition, the half-life in [2] (rat, blood, iv, 1 mg/kg) was 4.9 h. Besides, the Cmax is 5 nM in data set [2] (rat, blood, po, Oral Cmax, rats) and below 8.9 nM in data set [2] (read-out: Oral Cmax, rats, blood). In addition, in data set [2] (rats, i.v. 1 mg/kg, dose normalized), the “i.v. AUC 0–24 (d.n.)” value amounted to 6908 nM-hour. For the same compound, the IC50 on ALOX5 was determined as 430 nM; on COMT, 15 nM. Besides, the Papp in data set [3] was determined as 11.7 ×10⁻⁶ cm/s. Moreover, at COMT (Table 1, predicted target COMT), the Ki/IC50 is 15 nM. Further, in [1] (B and T cells, coronary artery smooth muscle cells, endothelial cells, fibroblasts, at 10 or 30 μM), the effect on proliferation entry is listed as “antiproliferative”.

In general, half-life refers to how long it takes for the measured level to halve. By Cmax is commonly meant the maximum level reached in the sampled fluid or tissue. One may read the IC50 as the midpoint of a concentration-inhibition curve. A low value points to greater potency in that assay. As usually defined, the Papp is a coefficient for how fast a substance crosses the barrier.
